Data on 2 molecules can be found in publication PMC8786250, “Comparison of chemical profiles, antioxidation, inhibition of skin extracellular matrix degradation, and anti-tyrosinase activity between mycelium and fruiting body of Cordyceps militaris and Isaria tenuipes” (Pharmaceutical Biology, 2022).

In brackets after ≈: the same amount, converted by molar mass.

The target in test [1] is T1, metalloproteinase-1 (MMP-1) from Clostridium histolyticum (ChC).
T1 construct: gene colG; native collagenase preparation (Sigma-Aldrich)
Put plainly: spectrophotometric MMP-1 (collagenase) inhibition assay. The test is classed as biochemical, Hathewaya histolytica. The conditions noted are these: substrate FALGPA; positive control. From the text: spectrophotometric MMP-1 (collagenase) inhibition assay on metalloproteinase-1 (MMP-1) from Clostridium histolyticum (ChC)

The target in test [2] is T2, elastase from porcine pancreas (Sus scrofa, UniProt P00772).
T2 construct: gene CELA1; native enzyme from pancreas, lyophilised powder (Sigma-Aldrich); mature form
Put plainly: spectrophotometric elastase inhibition assay. It is filed as biochemical. The note with it: read-out: IC50 (mg/mL) / Elastase inhibition (converted). From the text:
spectrophotometric elastase inhibition assay on elastase from porcine pancreas

T2 sequence (P00772 27-266): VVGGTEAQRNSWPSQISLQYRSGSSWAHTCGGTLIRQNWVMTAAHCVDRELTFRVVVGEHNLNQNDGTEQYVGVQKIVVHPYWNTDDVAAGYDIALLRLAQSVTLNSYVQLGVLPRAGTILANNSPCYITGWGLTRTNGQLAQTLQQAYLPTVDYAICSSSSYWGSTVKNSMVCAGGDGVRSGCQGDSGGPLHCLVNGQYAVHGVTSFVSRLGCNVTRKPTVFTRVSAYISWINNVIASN

As to `CC1(C)CC[C@]2(C(=O)O)CC[C@]3(C)C(=CC[C@@H]4[C@@]5(C)CC[C@H](O)C(C)(C)[C@@H]5CC[C@]43C)[C@@H]2C1` [OA, oleanolic acid], the “IC50 (mg/mL) / MMP-1 inhibition” value in test [1] came out at 0.002 ± 0.000 mg/mL (≈ 4.38 µM).
Turning to `O=C(O[C@@H]1Cc2c(O)cc(O)cc2O[C@@H]1c1cc(O)c(O)c(O)c1)c1cc(O)c(O)c(O)c1` [EGCG, epigallocatechin gallate], in test [2], the IC50 was 2.18 µM.
